Measured values as given in US20210205329A1 (The University of North Carolina at Chapel Hill, priority 2018, published 2021).
“And” between values parts separate entries of the source, which are not always exact repeats. Equal entries are not always repeated.

Legend:
TLR4/GABAAR α2 binding = molecular target: T1, TLR4/GABAAR α2 binding (Rattus norvegicus, UniProt Q9QX05); experiment: TLR4/GABAAR α2 co-immunoprecipitation in P rat VTA; type: in vivo; conditions: 15 mg/kg IP, P rats
T1 construct: from tissue; host or cells: ventral tegmental area (VTA) of alcohol-preferring (P) rats
T1 sequence (Q9QX05 26-835): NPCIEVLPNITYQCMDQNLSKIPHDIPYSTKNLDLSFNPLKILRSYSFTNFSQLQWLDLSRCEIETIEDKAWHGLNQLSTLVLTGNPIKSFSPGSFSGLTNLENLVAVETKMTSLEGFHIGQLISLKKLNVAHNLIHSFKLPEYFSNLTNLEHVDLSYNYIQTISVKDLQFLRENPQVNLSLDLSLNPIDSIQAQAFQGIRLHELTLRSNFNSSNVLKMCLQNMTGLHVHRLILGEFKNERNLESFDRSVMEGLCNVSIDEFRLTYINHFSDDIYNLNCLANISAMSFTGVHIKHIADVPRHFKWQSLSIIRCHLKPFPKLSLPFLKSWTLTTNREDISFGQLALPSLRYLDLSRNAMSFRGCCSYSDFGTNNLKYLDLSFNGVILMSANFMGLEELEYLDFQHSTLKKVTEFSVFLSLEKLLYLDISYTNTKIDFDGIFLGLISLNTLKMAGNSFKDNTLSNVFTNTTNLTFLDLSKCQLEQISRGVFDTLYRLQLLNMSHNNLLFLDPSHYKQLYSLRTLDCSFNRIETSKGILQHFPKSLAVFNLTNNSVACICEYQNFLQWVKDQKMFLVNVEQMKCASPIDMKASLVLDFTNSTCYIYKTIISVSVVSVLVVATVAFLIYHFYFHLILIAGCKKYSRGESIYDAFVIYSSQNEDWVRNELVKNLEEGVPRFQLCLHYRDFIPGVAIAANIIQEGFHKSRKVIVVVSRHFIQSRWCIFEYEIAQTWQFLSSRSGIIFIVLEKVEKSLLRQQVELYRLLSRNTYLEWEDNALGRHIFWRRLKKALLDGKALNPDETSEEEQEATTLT
Experimental: (§1) Co-Immunoprecipitation Assay RAW264.7 cells [treated with LPS (1 μg/ml), 3α,5α-THP (1 μM) or pregnenolone (1 μM)] were exposed to chemical protein crosslinking (Poulopoulos et al, 2009) at 24 hrs post-treatment. Briefly, the cells were incubated (20 min on ice) with 1 mM of the cleavable, membrane-permeable crosslinker DSP (Thermo Fisher Scientific, Cat. #PG82081). Rat VTA homogenates were incubated (20 min on ice) with 200 μM of DSP. The crosslinker was quenched in 1 M Tris buffer (pH 7.5) (to a final concentration of 10-20 mM), and the material was centrifuged at 21,000×g for 15 min. Proteins from the cells were extracted with Pierce IP Lysis Buffer (Thermo Fisher Scientific, Cat. #87787) supplemented with protease and phosphatase inhibitor cocktails (Sigma). Proteins from the VTA were extracted with CelLytic MT (dialyzable mild detergent, bicine and 150 mM NaCl; Sigma Aldrich, St. Louis, Mo., USA, Cat. #C3228) supplemented with protease and phosphatase inhibitor cocktails (Sigma) according to the manufacturers instructions. […]

TLR4/MyD88 binding = molecular target: T2, TLR4/MyD88 binding (Rattus norvegicus, UniProt Q9QX05); experiment: TLR4/MyD88 co-immunoprecipitation in P rat VTA; type: in vivo; conditions: 15 mg/kg IP, P rats
T2 construct: from tissue; host or cells: ventral tegmental area (VTA) of alcohol-preferring (P) rats
T2 sequence (Q9QX05 26-835): T1 sequence (Q9QX05 26-835)
Experimental: as §1

## CC(=O)[C@H]1CC[C@H]2[C@@H]3CC[C@H]4C[C@H](O)CC[C@]4(C)[C@H]3CC[C@]12C [3α,5α-THP, (3α,5α)3-hydroxypregnan-20-one]
TLR4/GABAAR α2 binding
  inhibition of TLR4/GABAAR α2 binding (α2 co-precipitating with TLR4) in VTA: 62.7±9.2% and 82.7±9.2% and ~80%
TLR4/MyD88 binding
  inhibition of TLR4/MyD88 binding in VTA: 43.5±5.4% and ~40%
